Bridge positions count the residues as written; N and C are the ends. Square brackets hold non-standard residues; d marks the D form. Peptide text beside a SMILES is read from it. * marks the point of attachment. Ileψ(thiazoline)Cys = CC[C@H](C)[C@H](N)C1=N[C@H](C(=O)*)CS1; dOrn = NCCC[C@@H](N)C(=O)O
Tests used:
broiler chickens [1] = test: Broiler chicken feed conversion experiment (Example 1, with microbiome seed chickens); assay type: in vivo, chickens (male Ross×Ross); conditions: for feed conversion (total consumed feed / total weight gain): days 0 through day 32
Description: The primary objective of this experiment was to evaluate if supplementation of feed with mifamurtide at 1.9 mg/kg feed improves feed conversion in broiler chickens, i.e., if broiler chickens require less feed for the same amount of gain in body weight. A secondary objective was to evaluate whether any such improvement compares favorably or unfavorably to improvement seen with bacitracin, an industry standard AGP. A third objective was to evaluate if fast versus slow acquisition of a healthy microbial flora (microbiome) by the experimental chickens influenced feed conversion. A fourth objective was to determine whether feed supplementation with bacitracin, a commonly used industry-standard antibiotic growth promoter, interacted with a potential influence of microbiome acquisition kinetics on feed conversion.
Two hundred day-of-hatch male Ross×Ross chicks were randomly assigned at 50 each to one of four groups: 1 negative control without microbiome seed chickens; 2 negative control with microbiome seed chickens; 3 bacitracin at 50 mg/kg of feed with microbiome seed chickens; or 4 mifamurtide at 1.9 mg/kg of feed with microbiome seed chickens. The mifamurtide was first mixed with 20 g Lactose (Lactochem Fine Powder, DFE Pharma, Germany), then mixed with corn meal to produce a 2% supplement to prepare the feed, which was fed to the birds ad libitum.
The microbiome seed chickens were healthy 21-day-old birds that had been raised on litter of fresh unused pine shavings, and had not been in contact with any other chickens, and thus had microbiomes characteristic of healthy grown birds. At start of the experiment, groups 2-4 of 50 study chicks were exposed to 10 microbiome seed chickens, which were removed on day 5 and were not counted in study results. The objective of the microbiome seed chickens was to rapidly induce a healthy microbiome in the freshly hatched experimental chickens. In contrast, the development of a normal healthy microbiome required more time in the control group without exposure to microbiome seed chickens.
All chicks were reared with a normal broiler starter in mash form, supplemented with amprolium at 113.5 mg/kg. Each group was raised in 5×10 feet floor pens at a stocking density of 1.0 square foot per bird on fresh pine shavings, in a solid-sided barn, with concrete floors, and under ambient humidity. Feed and water were available ad libitum throughout the trial. Thermostatically controlled gas heaters were the primary heat source for the barn, if needed. One heat lamp per pen provided supplemental heat during brooding. Fans were used to cool birds. […] Individual body weights of all birds were recorded on days 8, 21, and 32. […]
The overall (true) feed conversion for each group was determined by dividing total consumed feed by total weight gains of all chickens of the group. […] Calculated feed consumed by birds that died before termination of the experiment was subtracted from total weighed feed. Body weight gain and calculated feed consumption data were analyzed by one-way ANOVA and Tukey Honest True Difference correction for multiple comparisons, and graphs show means±95% confidence intervals. For determination of feed conversion of individual birds, calculated total feed consumption per bird was divided by total weight gain of the bird. […] Group differences in feed conversion were evaluated by non-parametric Mann Whitney U test, and error bars indicate 25-75 percentiles of calculated feed conversions of individual birds. […]

broiler chickens [2] = test: Broiler chicken growth and feed conversion experiment (Example 2, without microbiome seed chickens); assay type: in vivo, chickens (male Cobb×Cobb); conditions: for growth rate (percent body weight gain) / increased growth over the 236.2% rate of untreated control chickens: day 15 to 32; for feed conversion relative to untreated control chickens: no microbiome seed chickens
Description: The objective of the experiment was to compare the effect of 1) a low dose of 0.1 mg mifamurtide/kg feed; and 2) an intermediate dose of 0.57 mg romurtide/kg feed, a different MDP analog, to 50 mg bacitracin/kg feed and non-supplemented feed (untreated control chickens). Both the effect on feed conversion and on growth rates, i. e. the dual criteria for growth promotion, were examined.
Two-hundred day-of-hatch male Cobb×Cobb chickens were randomly assigned at 50 each to one of four groups: no feed supplementation; bacitracin at 50 mg/kg of feed; mifamurtide at 0.1 mg/kg of feed; or romurtide at 0.57 mg/kg of feed. Microbiome seed chickens were not used, and individual body weights of all birds were recorded on days 15 and 32. All other experimental parameters followed Example 1.

pigs = test: Pig feed conversion experiment (Example 3); assay type: in vivo; conditions: for feed conversion (total consumed feed / total weight gain): day 0 through day 26
Description: The objective of the experiment for Example 3 was to evaluate if MDP analogs promote growth in mammals as they do in birds. Pigs were selected as an animal model for the mammalian study. This experiment was designed to contrast the effect of a low dose of 0.1 mg mifamurtide/kg feed on growth and feed conversion to untreated control pigs and to pigs treated with 50 mg carbadox/kg feed, an industry-standard AGP used in pigs.
Pigs were weaned at 3-4 weeks of age and allotted based on weight and gender to one of 15 nursery pens with 6 pigs per pen (90 total pigs). Sex of the pigs was balanced within pens in a weight block. Dietary treatments were randomly assigned within weight blocks to pens of pigs. Three dietary treatments were administered in the phase 1 and 2 diets. Phase 1 diets were fed from day 0-14 post-weaning. On day 14 post-weaning, pigs were switched to phase 2 diets, which were fed until day […]. Treatment 1 was the untreated negative control diet without any growth-promoting supplement. […] Feed intake was monitored for each pen and weigh period. […]
The overall (true) feed conversion for each group was determined by dividing total consumed feed by total weight gains of all pigs of each treatment. […] Body weight gain and calculated feed consumption data were analyzed by one-way ANOVA and Tukey Honest True Difference correction for multiple comparisons. For determination of feed conversion of individual pigs, calculated total feed consumption of each pig was divided by total measured weight gain of the pig. […] Group differences in feed conversion were evaluated by non-parametric Mann Whitney U test.
Individual daily feed consumption per pig was computed by a mathematical model from individual body weights determined over the course of the 26-day experiment, and from total weighed feed consumed by each pen. […] The model first linearly interpolates body weights between the actual measured body weights of the pigs. Based on the calculated daily body weight, the daily feed consumption is then calculated as 4% of body weight. […]

mifamurtide
feed conversion (total consumed feed / total weight gain) (broiler chickens [1]; 1.9 mg mifamurtide/kg feed, with microbiome seed chickens): 1.605 g feed/g body weight gain
total feed consumed per chicken versus negative controls (broiler chickens [1]; mifamurtide 1.9 mg/kg feed, day 0 through day 32 (FIG. 1B)): consumed less feed
growth rate (percent body weight gain) (broiler chickens [2]; mifamurtide at 0.1 mg/kg feed): 259.5%
increased growth over the 236.2% rate of untreated control chickens (broiler chickens [2]; mifamurtide at 0.1 mg/kg feed): 9.9%
feed conversion relative to untreated control chickens (broiler chickens [2]; mifamurtide at 0.1 mg/kg feed, optimal husbandry): did not decrease feed conversion
feed conversion (total consumed feed / total weight gain) (pigs; 0.1 mg mifamurtide/kg feed, weaned pigs): 1.476

CCCCCCCCCCCCCCCCCC(=O)NCCCC[C@H](NC(=O)CC[C@@H](NC(=O)[C@H](C)NC(=O)[C@@H](C)O[C@H]1[C@H](O)[C@@H](CO)OC(O)[C@@H]1NC(C)=O)C(N)=O)C(=O)O (some centres unmarked) [romurtide]
growth rate (percent body weight gain) (broiler chickens [2]; romurtide at 0.57 mg/kg feed): 267.4%
increased growth over the 236.2% rate of untreated control chickens (broiler chickens [2]; romurtide at 0.57 mg/kg feed): 13.2%
feed conversion relative to untreated control chickens (broiler chickens [2]; romurtide at 0.57 mg/kg feed, optimal husbandry): did not decrease feed conversion

COC(=O)N/N=C/c1c[n+]([O-])c2ccccc2[n+]1[O-] [carbadox]
more feed required for the same amount of weight gain than treatment with 0.1 mg/kg feed mifamurtide (pigs; carbadox 50 mg/kg feed until day 14, 25 mg/kg feed after day 14): 14.6%
feed conversion (total consumed feed / total weight gain) (pigs; carbadox 50 mg/kg feed until day 14, 25 mg/kg feed after day 14, weaned pigs): 1.692

CC[C@H](C)[C@H](N)C1=N[C@H](C(=O)N[C@@H](CC(C)C)C(=O)N[C@H](CCC(=O)O)C(=O)N[C@H](C(=O)N[C@H]2CCCCNC(=O)[C@H](CC(N)=O)NC(=O)[C@@H](CC(=O)O)NC(=O)[C@H](Cc3cnc[nH]3)NC(=O)[C@@H](Cc3ccccc3)NC(=O)[C@H]([C@@H](C)CC)NC(=O)[C@@H](CCCN)NC2=O)[C@@H](C)CC)CS1 [bacitracin] ({Ileψ(thiazoline)Cys}-L[dE]IK[dOrn]I[dF]H[dD]N; lactam 4-C)
improvement in feed conversion over non-microbiome seeded untreated chickens (broiler chickens [1]; 50 mg/kg bacitracin treated, microbiome-seeded chickens): 15.6%
more feed required than mifamurtide supplementation (1.9 mg/kg feed) for the same amount of weight gain (broiler chickens [1]; bacitracin at 50 mg/kg feed, with microbiome seed chickens, days 0-32): 13.6%
feed conversion (total consumed feed / total weight gain) (broiler chickens [1]; bacitracin at 50 mg/kg feed, with microbiome seed chickens): 1.823
body weights on days 15 and 32, body weight gains and feed intake versus the three other treatments (broiler chickens [2]; bacitracin at 50 mg/kg feed): significantly lower
feed conversion rates versus the three other treatments (broiler chickens [2]; bacitracin at 50 mg/kg feed): higher feed conversion rates
effect on growth and feed conversion (broiler chickens [2]; bacitracin at 50 mg/kg feed, optimal husbandry, absence of a pathogenic microflora): profoundly negative effect

— patent publication US20190191740A1, “Methods to Promote Growth and Improve Feed Conversion in Animals” (Nutrivert LLC, priority 2016, published 2019)
